From the supplement of paper PMC10307832

Key:
Assay in all cases: relative viability (nuclei count vs DMSO), 5 days (fraction); higher = more cells survive
RERF-LC-KJ = test system: RERF-LC-KJ
Method in brief: (§1)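 Each reported value is a median over duplicate plates. It expresses relative viability: treated-well nuclei count divided by vehicle-well nuclei count. Lung cancer cell lines in 1536-well plates were dosed by pin tool a day after seeding, alone with one drug or with a fixed anchor-drug dose plus five library-drug doses (not always all listed) in √10 steps, and nuclei were counted after 5 days.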

NCI-H1563 = test system: NCI-H1563
Method in brief: as §1

LCLC-97TM1 = test system: LCLC-97TM1
Method in brief: as §1

NCI-H1651 = test system: NCI-H1651
Method in brief: as §1

NCI-H838 = test system: NCI-H838
Method in brief: as §1

NCI-H727 = test system: NCI-H727
Method in brief: as §1

H3255 = test system: H3255
Method in brief: as §1

LCLC-103H = test system: LCLC-103H
Method in brief: as §1

A-427 = test system: A-427
Method in brief: as §1

NCI-H1793 = test system: NCI-H1793
Method in brief: as §1

NCI-H23 = test system: NCI-H23
Method in brief: as §1

LU99A = test system: LU99A
Method in brief: as §1

NCI-H2347 = test system: NCI-H2347
Method in brief: as §1

PC-14 = test system: PC-14
Method in brief: as §1

PC-3 [JPC-3] = test system: PC-3 [JPC-3]
Method in brief: as §1

SW 900 = test system: SW 900
Method in brief: as §1

NCI-H1650 = test system: NCI-H1650
Method in brief: as §1

NCI-H460 = test system: NCI-H460
Method in brief: as §1

LK-2 = test system: LK-2
Method in brief: as §1

COR-L23 = test system: COR-L23
Method in brief: as §1

NCI-H1944 = test system: NCI-H1944
Method in brief: as §1

NCI-H650 = test system: NCI-H650
Method in brief: as §1

SW 1573 = test system: SW 1573
Method in brief: as §1

201T = test system: 201T
Method in brief: as §1

With CC(C)Oc1cc(Nc2nc(N[C@@H](C)c3ccc(F)cn3)ncc2Cl)n[nH]1 [AZ23] + COc1cc2c(Oc3ccc(NC(=O)C4(C(=O)Nc5ccc(F)cc5)CC4)cc3F)ccnc2cc1OCCCN1CCOCC1 [Foretinib] (partner 0.25 µM) the relative viability (RERF-LC-KJ; first compound 0.01 µM) was 1.09, the relative viability (RERF-LC-KJ; first compound 0.03162 µM) was 0.877 and the relative viability (RERF-LC-KJ; first compound 0.3162 µM) was 0.852. It also gave a relative viability (NCI-H1563; first compound 0.01 µM) of 0.922, a relative viability (NCI-H1563; first compound 0.03162 µM) of 1.01 and a relative viability (NCI-H1563; first compound 0.3162 µM) of 0.993. The relative viability (LCLC-97TM1; first compound 0.01 µM) was 0.922, the relative viability (LCLC-97TM1; first compound 0.03162 µM) was 0.928 and the relative viability (LCLC-97TM1; first compound 0.3162 µM) was 1.01. The relative viability (NCI-H1651; first compound 0.03162 µM) was 0.828, the relative viability (NCI-H1651; first compound 0.3162 µM) was 0.844 and the relative viability (NCI-H838; first compound 0.01 µM) was 1.24. For the same compound, the relative viability (NCI-H838; first compound 0.03162 µM) was 1.14, the relative viability (NCI-H838; first compound 0.3162 µM) was 0.994 and the relative viability (NCI-H727; first compound 0.01 µM) was 0.789. For the same compound, the relative viability (NCI-H727; first compound 0.03162 µM) was 0.852, the relative viability (NCI-H727; first compound 0.3162 µM) was 1.1 and the relative viability (H3255; first compound 0.01 µM) was 0.881. For the same compound, the relative viability (H3255; first compound 0.03162 µM) was 0.764, the relative viability (H3255; first compound 0.3162 µM) was 0.915 and the relative viability (LCLC-103H; first compound 0.01 µM) was 0.729. It also gave a relative viability (LCLC-103H; first compound 0.03162 µM) of 0.817, a relative viability (LCLC-103H; first compound 0.3162 µM) of 0.78 and a relative viability (A-427; first compound 0.01 µM) of 1. It also gave a relative viability (A-427; first compound 0.03162 µM) of 1.05, a relative viability (A-427; first compound 0.3162 µM) of 1.07 and a relative viability (NCI-H1793; first compound 0.01 µM) of 0.879. It also gave a relative viability (NCI-H1793; first compound 0.03162 µM) of 0.859, a relative viability (NCI-H1793; first compound 0.3162 µM) of 0.713 and a relative viability (NCI-H23; first compound 0.03162 µM) of 1.07. For the same compound, the relative viability (NCI-H23; first compound 0.3162 µM) was 0.596, the relative viability (LU99A; first compound 0.01 µM) was 0.799 and the relative viability (LU99A; first compound 0.03162 µM) was 0.846. It also gave a relative viability (LU99A; first compound 0.3162 µM) of 0.872, a relative viability (NCI-H2347; first compound 0.01 µM) of 0.85 and a relative viability (NCI-H2347; first compound 0.03162 µM) of 0.986. For the same compound, the relative viability (NCI-H2347; first compound 0.3162 µM) was 1.15, the relative viability (PC-14; first compound 0.01 µM) was 1.1 and the relative viability (PC-14; first compound 0.03162 µM) was 1. For the same compound, the relative viability (PC-14; first compound 0.3162 µM) was 1.13, the relative viability (PC-3 [JPC-3]; first compound 0.01 µM) was 1.23 and the relative viability (PC-3 [JPC-3]; first compound 0.03162 µM) was 1.14. The relative viability (PC-3 [JPC-3]; first compound 0.3162 µM) was 0.996, the relative viability (SW 900; first compound 0.01 µM) was 1.04 and the relative viability (SW 900; first compound 0.03162 µM) was 0.844. The relative viability (SW 900; first compound 0.3162 µM) was 0.775, the relative viability (NCI-H1650; first compound 0.03162 µM) was 1.51 and the relative viability (NCI-H1650; first compound 0.3162 µM) was 1.23. It also gave a relative viability (NCI-H460; first compound 0.01 µM) of 1.12, a relative viability (NCI-H460; first compound 0.03162 µM) of 1.11 and a relative viability (NCI-H460; first compound 0.3162 µM) of 1.05. For the same compound, the relative viability (LK-2; first compound 0.01 µM) was 1.15, the relative viability (LK-2; first compound 0.03162 µM) was 1.38 and the relative viability (LK-2; first compound 0.3162 µM) was 0.706. It also gave a relative viability (COR-L23; first compound 0.01 µM) of 1.09, a relative viability (COR-L23; first compound 0.03162 µM) of 1.02 and a relative viability (COR-L23; first compound 0.3162 µM) of 1.11. It also gave a relative viability (NCI-H1944; first compound 0.01 µM) of 0.811, a relative viability (NCI-H1944; first compound 0.03162 µM) of 0.954 and a relative viability (NCI-H1944; first compound 0.3162 µM) of 0.864. It also gave a relative viability (NCI-H650; first compound 0.01 µM) of 0.988, a relative viability (NCI-H650; first compound 0.03162 µM) of 1.01 and a relative viability (NCI-H650; first compound 0.3162 µM) of 1. For the same compound, the relative viability (SW 1573; first compound 0.01 µM) was 1.28, the relative viability (SW 1573; first compound 0.03162 µM) was 1.1 and the relative viability (SW 1573; first compound 0.3162 µM) was 0.562. The relative viability (201T; first compound 0.03162 µM) was 1.28 and the relative viability (201T; first compound 0.3162 µM) was 1.13.
